Test results: BindingDB's records for patent US10065963 (Incyte Corporation, 2018)

Key:
[1] = biological target: Tyrosine-protein kinase JAK1 (Homo sapiens, UniProt P23458); experiment: In Vitro JAK Kinase Assay; conditions: pH 7.8; 25 °C
[2] = biological target: T1, Phosphatidylinositol 4,5-bisphosphate 3-kinase catalytic subunit delta isoform (Homo sapiens, UniProt O00329); experiment: PI3K-delta Scintillation Proximity Assay; conditions: pH 6.7; 25 °C
T1 sequence (O00329 whole entry): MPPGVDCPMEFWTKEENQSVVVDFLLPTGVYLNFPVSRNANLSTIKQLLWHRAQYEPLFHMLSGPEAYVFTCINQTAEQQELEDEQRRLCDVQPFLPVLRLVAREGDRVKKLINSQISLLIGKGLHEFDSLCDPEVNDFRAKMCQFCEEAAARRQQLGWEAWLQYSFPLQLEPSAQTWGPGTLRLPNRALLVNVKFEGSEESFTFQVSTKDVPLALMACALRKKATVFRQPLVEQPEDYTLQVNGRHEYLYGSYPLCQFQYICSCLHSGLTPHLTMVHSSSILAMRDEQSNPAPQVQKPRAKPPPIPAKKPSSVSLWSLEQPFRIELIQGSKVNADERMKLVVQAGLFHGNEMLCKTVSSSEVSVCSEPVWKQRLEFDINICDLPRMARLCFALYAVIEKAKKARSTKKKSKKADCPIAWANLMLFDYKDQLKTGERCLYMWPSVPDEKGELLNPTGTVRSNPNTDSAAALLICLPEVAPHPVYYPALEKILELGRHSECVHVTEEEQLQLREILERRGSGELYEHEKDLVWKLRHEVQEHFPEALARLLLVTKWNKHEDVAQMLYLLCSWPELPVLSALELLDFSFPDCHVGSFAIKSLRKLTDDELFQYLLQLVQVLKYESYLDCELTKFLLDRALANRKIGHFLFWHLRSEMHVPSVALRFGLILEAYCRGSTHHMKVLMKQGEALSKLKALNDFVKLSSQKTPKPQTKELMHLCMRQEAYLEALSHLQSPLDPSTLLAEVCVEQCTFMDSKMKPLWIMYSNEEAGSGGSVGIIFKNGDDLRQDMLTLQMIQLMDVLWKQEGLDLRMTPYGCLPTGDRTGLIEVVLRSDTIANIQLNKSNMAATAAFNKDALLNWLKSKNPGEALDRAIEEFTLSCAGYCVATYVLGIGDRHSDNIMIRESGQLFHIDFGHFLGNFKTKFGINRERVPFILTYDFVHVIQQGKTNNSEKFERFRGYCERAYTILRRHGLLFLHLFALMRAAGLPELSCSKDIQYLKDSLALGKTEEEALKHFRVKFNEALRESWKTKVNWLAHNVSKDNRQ

[3] = biological target: Phosphatidylinositol 4,5-bisphosphate 3-kinase catalytic subunit gamma isoform (Homo sapiens, UniProt P48736); experiment: PI3K-gamma Scintillation Proximity Assay; conditions: pH 6.7; 25 °C
Protocol: PI3Kγ (p110γ) Recombinant Human Protein was purchased from Life technology (Grand Island, N.Y.). […] The final concentration of DMSO in the assay was 2%. […] ATP, 13 nM PI3Kγ. […] The final concentration of SPA beads is 1.0 mg/mL.

Sequence of Phosphatidylinositol 4,5-bisphosphate 3-kinase catalytic subunit gamma isoform (P48736 whole entry, canonical isoform): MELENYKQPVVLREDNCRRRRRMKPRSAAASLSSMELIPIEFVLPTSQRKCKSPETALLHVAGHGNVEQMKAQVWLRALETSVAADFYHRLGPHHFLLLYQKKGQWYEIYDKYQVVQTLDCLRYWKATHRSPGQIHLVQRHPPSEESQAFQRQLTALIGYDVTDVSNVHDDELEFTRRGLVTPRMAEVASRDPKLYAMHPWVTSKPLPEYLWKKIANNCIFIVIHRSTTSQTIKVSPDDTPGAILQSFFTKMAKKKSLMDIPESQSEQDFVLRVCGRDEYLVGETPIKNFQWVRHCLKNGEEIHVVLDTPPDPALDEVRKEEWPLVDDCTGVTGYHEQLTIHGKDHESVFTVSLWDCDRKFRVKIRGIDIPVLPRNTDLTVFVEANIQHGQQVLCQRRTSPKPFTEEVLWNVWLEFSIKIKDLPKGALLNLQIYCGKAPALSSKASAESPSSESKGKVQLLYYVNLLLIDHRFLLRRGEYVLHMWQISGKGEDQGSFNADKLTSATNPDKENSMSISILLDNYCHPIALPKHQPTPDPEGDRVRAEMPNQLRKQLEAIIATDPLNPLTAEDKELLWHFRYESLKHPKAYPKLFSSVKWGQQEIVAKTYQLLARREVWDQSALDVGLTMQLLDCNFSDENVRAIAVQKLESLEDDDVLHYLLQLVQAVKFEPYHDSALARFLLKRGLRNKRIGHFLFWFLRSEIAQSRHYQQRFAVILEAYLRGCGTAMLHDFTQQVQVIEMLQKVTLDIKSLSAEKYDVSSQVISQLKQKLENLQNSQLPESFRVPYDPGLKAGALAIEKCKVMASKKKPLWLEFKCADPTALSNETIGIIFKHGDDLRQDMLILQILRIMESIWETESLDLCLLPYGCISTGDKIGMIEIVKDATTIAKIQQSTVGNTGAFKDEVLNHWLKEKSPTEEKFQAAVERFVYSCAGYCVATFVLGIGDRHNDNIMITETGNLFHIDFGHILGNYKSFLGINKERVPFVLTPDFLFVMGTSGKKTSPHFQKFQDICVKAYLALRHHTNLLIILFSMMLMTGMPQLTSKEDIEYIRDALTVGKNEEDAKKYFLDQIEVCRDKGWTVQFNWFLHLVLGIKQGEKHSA
Sequence of Tyrosine-protein kinase JAK1 (P23458 whole entry, canonical isoform): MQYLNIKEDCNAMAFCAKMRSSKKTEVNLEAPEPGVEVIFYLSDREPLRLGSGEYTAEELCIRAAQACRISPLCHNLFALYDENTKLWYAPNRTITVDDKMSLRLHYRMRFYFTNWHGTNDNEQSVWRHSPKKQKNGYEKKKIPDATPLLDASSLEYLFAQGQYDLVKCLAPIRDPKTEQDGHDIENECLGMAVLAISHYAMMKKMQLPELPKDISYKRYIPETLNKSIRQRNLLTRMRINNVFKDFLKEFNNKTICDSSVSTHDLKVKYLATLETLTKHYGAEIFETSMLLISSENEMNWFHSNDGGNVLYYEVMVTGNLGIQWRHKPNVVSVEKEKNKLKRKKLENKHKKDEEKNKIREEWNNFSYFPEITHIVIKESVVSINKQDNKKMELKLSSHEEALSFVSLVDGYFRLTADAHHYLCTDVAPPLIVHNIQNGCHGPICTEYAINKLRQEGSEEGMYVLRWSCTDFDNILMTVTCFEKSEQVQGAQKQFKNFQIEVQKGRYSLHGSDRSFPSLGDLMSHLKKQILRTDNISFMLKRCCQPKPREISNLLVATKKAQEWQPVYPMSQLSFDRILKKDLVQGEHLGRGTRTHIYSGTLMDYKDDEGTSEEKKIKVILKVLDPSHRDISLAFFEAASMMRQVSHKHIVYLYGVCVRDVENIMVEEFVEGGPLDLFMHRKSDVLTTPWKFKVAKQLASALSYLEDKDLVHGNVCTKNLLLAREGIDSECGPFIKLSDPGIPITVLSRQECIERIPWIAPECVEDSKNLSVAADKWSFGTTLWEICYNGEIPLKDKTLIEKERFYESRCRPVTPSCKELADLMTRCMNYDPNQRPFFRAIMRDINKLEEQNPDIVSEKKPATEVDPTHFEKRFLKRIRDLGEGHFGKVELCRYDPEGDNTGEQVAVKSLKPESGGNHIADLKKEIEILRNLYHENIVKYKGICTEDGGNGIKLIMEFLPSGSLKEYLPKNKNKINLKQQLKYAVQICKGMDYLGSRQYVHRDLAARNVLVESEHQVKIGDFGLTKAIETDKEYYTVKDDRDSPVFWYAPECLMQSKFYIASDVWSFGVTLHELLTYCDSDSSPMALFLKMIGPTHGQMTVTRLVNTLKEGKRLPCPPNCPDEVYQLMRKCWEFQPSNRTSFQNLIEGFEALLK

SMILES | IC50 [1] [nM] | IC50 [2] [nM] | IC50 [3] [nM]
N#CCC(CN1CCN(C(=O)c2ccc(C#N)cc2F)CC1)n1cc(-c2ncnc3[nH]ccc23)cn1 (stereo not drawn) [US10065963, Compound 5] | < 100 |  | 
C[C@H](NC(=O)c1c(N)nn2cccnc12)c1cc(Cl)c2cncn2c1N1CCS(=O)(=O)[C@@H](C)C1 [US10065963, Example 31B] |  | < 100 | < 100
